“And” between values parts separate entries of the source, which are not always exact repeats. Identical values can stand only once.
System: panel of 484 cancer cell lines
Experiment: PRISM cancer cell line profiling, 5 days
Type: cell-based
Parameters: Viability: scale not given here; AUC: unit not given beside the values
Protocol: Cancer cell line profiling was performed using the Broad’s PRISM platform. Cell treatment and data analysis were performed as described in Yu et al[42]. Raw Luminex signal was converted to AUC values for each cell line as described. The resulting AUC profile for each compound was modeled against DepMap using the limma package in R[71]. Because hotspot mutation analysis was performed against DepMap, TP53 annotations in Fig. 6c,d are directly from DepMap.

[1] = GCIY_STOMACH, pert_dose 6.10E-04
[2] = GCT_SOFT_TISSUE, pert_dose 6.10E-04
[3] = GI1_CENTRAL_NERVOUS_SYSTEM, pert_dose 6.10E-04
[4] = GMS10_CENTRAL_NERVOUS_SYSTEM, pert_dose 6.10E-04
[5] = GOS3_CENTRAL_NERVOUS_SYSTEM, pert_dose 6.10E-04
[6] = HCC56_LARGE_INTESTINE, pert_dose 6.10E-04
[7] = HCC366_LUNG, pert_dose 6.10E-04
[8] = HCC1143_BREAST, pert_dose 6.10E-04
[9] = HCC1195_LUNG, pert_dose 6.10E-04
[10] = HCC1359_LUNG, pert_dose 6.10E-04
[11] = HCC1419_BREAST, pert_dose 6.10E-04
[12] = HCC1428_BREAST, pert_dose 6.10E-04
[13] = HCC1438_LUNG, pert_dose 6.10E-04
[14] = HCC1806_BREAST, pert_dose 6.10E-04
[15] = HCC4006_LUNG, pert_dose 6.10E-04
[16] = HCT15_LARGE_INTESTINE, pert_dose 6.10E-04
[17] = HCT116_LARGE_INTESTINE, pert_dose 6.10E-04
[18] = HDQP1_BREAST, pert_dose 6.10E-04

COc1ccc(C2=N[C@@H](c3ccc(Cl)cc3)[C@@H](c3ccc(Cl)cc3)N2C(=O)N2CCNC(=O)C2)c(OC(C)C)c1 [Nutlin-3A]
AUC (FTC238_THYROID): 1.264 | MFI FTC238_THYROID (FTC238_THYROID, pert_dose 6.10E-04): 2880 and 3372 and 2980.5 and 2950.5 and 4003.5 | AUC (G292CLONEA141B1_BONE): 1.148 | AUC (G361_SKIN): 1.031 | MFI G361_SKIN (G361_SKIN, pert_dose 6.10E-04): 10064 and 9507.5 and 5703 and 7102 and 9477 | AUC (G401_SOFT_TISSUE): 0.8138 | AUC (G402_SOFT_TISSUE): 0.8312 | MFI G402_SOFT_TISSUE (G402_SOFT_TISSUE, pert_dose 6.10E-04): 8566 and 7883 and 9123.5 and 10028.5 and 7843.5 | AUC (GAMG_CENTRAL_NERVOUS_SYSTEM): 1.104 | AUC (GB1_CENTRAL_NERVOUS_SYSTEM): 1.08 | MFI GB1_CENTRAL_NERVOUS_SYSTEM (GB1_CENTRAL_NERVOUS_SYSTEM, pert_dose 6.10E-04): 8797 and 10917.5 and 10369 and 11626 and 6173 | AUC (GCIY_STOMACH): 1.0178 | MFI GCIY_STOMACH [1]: 10513.5 and 10287.5 and 8158.5 and 7393 and 6559.5 | Viability [1]: 1.05 | AUC (GCT_SOFT_TISSUE): 1.1243 | MFI GCT_SOFT_TISSUE [2]: 30402 and 32248 and 27974 and 25401 and 26115.5 | Viability [2]: 1.1 | AUC (GI1_CENTRAL_NERVOUS_SYSTEM): 1.1989 | MFI GI1_CENTRAL_NERVOUS_SYSTEM [3]: 7007.5 and 7677 and 5613.5 and 9782 and 8476.5 | Viability [3]: 1.209 | AUC (GMS10_CENTRAL_NERVOUS_SYSTEM): 1.196 | MFI GMS10_CENTRAL_NERVOUS_SYSTEM [4]: 2195 and 3287.5 and 2615 and 2263.5 and 2230 | Viability [4]: 0.8757 | AUC (GOS3_CENTRAL_NERVOUS_SYSTEM): 0.8893 | MFI GOS3_CENTRAL_NERVOUS_SYSTEM [5]: 16506.5 and 12732.5 and 12479 and 15312 and 16884 | Viability [5]: 1.256 | AUC (GP2D_LARGE_INTESTINE): 0.8664 | AUC (H4_CENTRAL_NERVOUS_SYSTEM): 0.8741 | AUC (HARA_LUNG): 1.148 | MFI HARA_LUNG (HARA_LUNG, pert_dose 6.10E-04): 10420 and 10731 and 9850 and 12219 and 8432 | Viability (HARA_LUNG, pert_dose 6.10E-04): 1.156 | AUC (HCC15_LUNG): 1.083 | MFI HCC15_LUNG (HCC15_LUNG, pert_dose 6.10E-04): 10708.5 and 9658 and 9646.5 and 7600 and 8929.5 | AUC (HCC38_BREAST): 1.13 | AUC (HCC44_LUNG): 1.143 | MFI HCC44_LUNG (HCC44_LUNG, pert_dose 6.10E-04): 8858.5 and 14957 and 12427 and 9895 and 9714 | Viability (HCC44_LUNG, pert_dose 6.10E-04): 0.9479 | AUC (HCC56_LARGE_INTESTINE): 1.116 | MFI HCC56_LARGE_INTESTINE [6]: 22390 and 19383.5 and 18019.5 and 16274 and 12370 | Viability [6]: 1.19 | AUC (HCC78_LUNG): 1.129 | MFI HCC78_LUNG (HCC78_LUNG, pert_dose 6.10E-04): 13938.5 and 17123.5 and 16093 and 13546.5 and 12989 | Viability (HCC78_LUNG, pert_dose 6.10E-04): 1.137 | AUC (HCC95_LUNG): 1.133 | MFI HCC95_LUNG (HCC95_LUNG, pert_dose 6.10E-04): 19085 and 17009 and 14223 and 15820 and 14624.5 | Viability (HCC95_LUNG, pert_dose 6.10E-04): 1.3736 | AUC (HCC366_LUNG): 1.1015 | MFI HCC366_LUNG [7]: 3176 and 4976 and 3338 and 4080 and 5551.5 | Viability [7]: 0.8601 | AUC (HCC827_LUNG): 1.216 | AUC (HCC1143_BREAST): 1.173 | MFI HCC1143_BREAST [8]: 10292 and 10056.5 and 12994 and 8725 and 11412 | Viability [8]: 1.09 | AUC (HCC1195_LUNG): 0.9896 | MFI HCC1195_LUNG [9]: 3248 and 2450 and 2557 and 3311 and 2339 | Viability [9]: 0.8066 | AUC (HCC1359_LUNG): 1.205 | MFI HCC1359_LUNG [10]: 3254.5 and 3202.5 and 4282 and 3759 and 4252 | Viability [10]: 1.0552 | AUC (HCC1419_BREAST): 1.157 | MFI HCC1419_BREAST [11]: 4554 and 3766 and 6250 and 4022 and 3342 | Viability [11]: 1.3281 | AUC (HCC1428_BREAST): 1.0418 | MFI HCC1428_BREAST [12]: 5601.5 and 4304.5 and 6512 and 4295 and 6602.5 | Viability [12]: 0.9769 | AUC (HCC1438_LUNG): 1.064 | MFI HCC1438_LUNG [13]: 3705.5 and 4037.5 and 3791 and 2958 and 2338 | Viability [13]: 1.029 | AUC (HCC1588_LUNG): 0.8674 | MFI HCC1588_LUNG (HCC1588_LUNG, pert_dose 6.10E-04): 12748 and 13169 and 10479 and 16252.5 and 12413.5 | AUC (HCC1806_BREAST): 1.223 | MFI HCC1806_BREAST [14]: 4998.5 and 5222.5 and 6609 and 6768 and 3833.5 | Viability [14]: 1.444 | AUC (HCC1937_BREAST): 1.259 | Viability (HCC1937_BREAST, pert_dose 6.10E-04): 0.8468 | AUC (HCC4006_LUNG): 1.075 | MFI HCC4006_LUNG [15]: 13511 and 17514.5 and 15021 and 17956 and 15891.5 | Viability [15]: 1.081 | AUC (HCT15_LARGE_INTESTINE): 1.231 | MFI HCT15_LARGE_INTESTINE [16]: 19712 and 17910 and 19958 and 21240.5 and 15477 | Viability [16]: 1.456 | AUC (HCT116_LARGE_INTESTINE): 0.9703 | MFI HCT116_LARGE_INTESTINE [17]: 29799 and 33721.5 and 25531.5 and 28789.5 and 30554.5 | Viability [17]: 1.204 | AUC (HDQP1_BREAST): 1.144 | MFI HDQP1_BREAST [18]: 7912.5 and 7534 and 9203 and 8805.5 and 8820 | Viability [18]: 1.159 | AUC (HEC1A_ENDOMETRIUM): 0.9522 | AUC (HEC1B_ENDOMETRIUM): 1.073 | Viability (HEC1B_ENDOMETRIUM, pert_dose 6.10E-04): 0.9409 | AUC (HEC6_ENDOMETRIUM): 1.185
